Experimental data as given in patent US20110130428A1, “Sublingual Compositions Comprising (2S) - (4E) -N-Methyl-5- (3- (5-Isopropoxypyridin) YL)-4-Penten-2-Amine” (ASTRAZENECA AB, priority 2008, published 2011).
Read-outs that look alike come from different tables or passages of the source.

Tests used:
[1] = male, beagle, dog, in vivo, 13 mg
Procedure: (§3) Two male Beagle dogs weighing 13-15 kg were used in the study. At one occasion the dogs were administered the sublingual composition under the tongue (i.e. as intended) and at the other occasion, after a washout period of 7 days, they were given the sublingual composition orally (i.e. into the stomach by gavage together with 40 ml of water).
(§4) The dogs were fasted overnight and until four hours after dose administration. Water was allowed ad lib until one hour before dosing and after three hours following dosing. To minimize the chance of swallowing during the sublingual study occasion, the dogs were anesthetized by intravenous bolus injection of Diprivan (10 mg/ml, AstraZeneca, Sweden) 0.8-1 ml/kg, followed by intubation, connection to a respiratory ventilator (Servo ventilator 900C, Siemens-Elema AB, Sweden) and capnograph (RespSense, MedAir AB, Sweden) and given additional anesthesia with 1.5% Isofluran (Isoba Vet., Schering-Plough AB, Sweden). The dogs were kept anesthetized for one hour after the administration of the sublingual composition under the tongue. The dogs were not anesthetized during the oral administration occasion.
(§5) Venous blood samples (2 mL) were collected before (0) and after 5, 15, 30, 45 minutes, 1.0, 1.5, 2.0, 3.0, 4.0, 6.0 and 8.0 hours after dosing. The samples were collected into vacuum tubes (BD Vacutainer K2-EDTA, Becton&Dickinson AB, Sweden), placed on ice and centrifuged for 10 minutes (4° C., 1500 g) within 30 minutes after sampling. The plasma was then transferred to 1.8 ml Nunc Cryo tubes (InterMed A/S, Denmark) and frozen (−20° C.) pending analysis.
(§6) The plasma samples (50 μL) were analyzed for Compound A and its metabolite Compound B by a standard LC-MS/MS analytical method. The determinations of the concentration of Compound A and Compound B in plasma was performed by liquid-liquid extraction followed by reversed-phase liquid chromatography and tandem mass spectrometry. Determinations of both Compound A and Compound B were performed in the range 0.8 to 200 nmol/L. Samples outside the range of determination were diluted up to 10 times. Quality control samples at three concentrations were interspersed with the study samples at 2.40, 16.0 and 160 nmol/L. The internal standard used in the assay was Deuterium labeled Compound A (AstraZeneca R&D, Sweden).
(§7) Exposure of animals to Compound A and it's metabolite Compound B expressed as area under the curve from time zero to the last sampling time, AUC(0-8 h), was obtained by means of non compartmental analysis in WinNonlin (version 4.0, Pharsight Corporation, USA). The maximum concentration, Cmax, and time of maximum concentration, Tmax, were direct observations from the plasma concentration versus time data. AUC(0-8 h) was calculated by means of the linear up-log down method. The area under the curve from zero to infinity, AUC, was calculated in a similar manner, with extrapolation from time of the last observed concentration, tlast, to infinity by adding the ratio of Cpred (predicted plasma concentration at tlast) and terminal slope factor. The terminal slope factor and subsequently the terminal half life (T1/2) were estimated in WinNonlin by log linear regression of the terminal phase (4 data points were used) of the plasma concentration time curve.

in vivo = details: male, beagle, dog, 13 mg; for AUC(0-t): AUC (0-8 h)
Procedure: as §3, §4, §5, §6, §7

[2] = Beagle dogs, cited from earlier work
[3] = Animal study: plasma pharmacokinetics of Compound A and metabolite Compound B after sublingual or oral administration of the Compound A solid composition; details: for Cmax, relative difference in exposure sublingual compared to oral / AUC, relative difference in exposure sublingual compared to oral: 100*sublingual value/oral value; for AUC, relative difference in exposure sublingual compared to oral: AUC for Compound A; for AUC(0-t) / AUC / Cmax / Tmax / half-life / concentration at 5 min: male, beagle, dog, plasma, 13 mg; for AUC(0-t): AUC (0-8 h); for AUC(0-t) / AUC / Cmax / Tmax / half-life: Example 6 tablet; for AUC: zero to infinity; for half-life: T½; for concentration at 5 min: plasma concentration at 5 minutes
Procedure: as §3, §4, §5, §6, §7

[4] = Solubility / Biopharmaceutical Classification System (BCS) class; type: physicochemical
Source text: (§1) Thus, the dissolution and intestinal permeability is not the reason for the observed high intersubject variability in plasma concentrations of Compound A.

[5] = Intestinal permeability (fraction of an oral dose absorbed); type: in vivo
Source text: as §1

[6] = system: NNR subtypes that characterize the human ganglia; experiment: Nicotinic function in adrenal chromaffin tissue; type: cell-based; details: ganglionic NNR subtypes
Source text: (§2) It is advantageous that the treatment or prevention of diseases, disorders and conditions occurs without appreciable adverse side effects (e.g., significant increases in blood pressure and heart rate, significant negative effects upon the gastro-intestinal tract, and significant effects upon skeletal muscle). […] Thus, Compound A is capable of treating and/or preventing diseases, disorders and conditions without eliciting significant side effects associated with activity at ganglionic and neuromuscular sites.

[7] = dose range 2 to 320 mg, healthy volunteers; cited from earlier work
muscle-type NNRs = experiment: Nicotinic function in cell preparations expressing muscle-type NNRs; type: cell-based; details: skeletal muscle NNR
Source text: as §2

[8] = Sublingual, Subject 1, anesthetized dog, 13 mg Compound A
[9] = Sublingual, Subject 2, anesthetized dog, 13 mg Compound A
[10] = po, Oral (gavage), Subject 1, dog, 13 mg Compound A
[11] = po, Oral (gavage), Subject 2, dog, 13 mg Compound A

With `CC(C)Oc1cncc(/C=C/C[C@H](C)N)c1` [Compound B, (4E)-5-(3-(5-isopropoxypyridin)yl)-4-penten-2-amine] the “AUC (0-8 h)” value [1] was 0.59 µM·h, the Cmax [1] was 110 nM and the Tmax [1] was 6 h. The “decrease of exposure (Cmax, AUC 0-8 h) following sublingual compared to oral administration of Compound A” value [1] was 30-70%, the “AUC (0-8 h)” value ([1]; po) was 1 µM·h and the Cmax ([1]; po) was 230 nM. For the same molecule, the Tmax ([1]; po) was 1 h, the AUC(0-t) (in vivo) was 0.51 µM·h and the Cmax (in vivo) was 99 nM. For the same molecule, the Tmax (in vivo) was 4 h, the AUC(0-t) (in vivo; po) was 1 µM·h and the Cmax (in vivo; po) was 210 nM. For the same molecule, the Tmax (in vivo; po) was 1.5 h.
In the case of `CN[C@@H](C)C/C=C/c1cncc(OC(C)C)c1` [Compound A, (2S)-(4E)-N-methyl-5-(3-(5-isopropoxypyridin)yl)-4-penten-2-amine], the oral bioavailability ([2]; oral) is given as “about 30%”, the “total plasma clearance relative to hepatic blood flow” value [2] is given as “markedly higher than the hepatic blood flow” and the “Cmax, relative difference in exposure sublingual compared to oral” value ([3]; Subject 1, dog) is given as 740 % difference. For the same molecule, the “AUC, relative difference in exposure sublingual compared to oral” value ([3]; Subject 1, dog) was 550 % difference, the “Cmax, relative difference in exposure sublingual compared to oral” value ([3]; Subject 2, dog) was 510 % difference and the “AUC, relative difference in exposure sublingual compared to oral” value ([3]; Subject 2, dog) was 520 % difference. The AUC(0-t) [3, 8] was 2 µM·h, the AUC(0-t) [3, 9] was 1.5 µM·h and the AUC [3, 8] was 2.1 µM·h. It also gave an AUC [3, 9] of 1.5 µM·h, a Cmax [3, 8] of 1400 nM and a Cmax [3, 9] of 610 nM. For the same molecule, the Tmax [3, 8] was 0.5 h, the Tmax [3, 9] was 1 h and the half-life [3, 8] was 1.3 h. The half-life [3, 9] was 1.4 h, the concentration at 5 min ([3]; other: sublingual, 5 minutes after sublingual administration, Subject 1, dog) was roughly 200 nM and the concentration at 5 min ([3]; other: sublingual, 5 minutes after sublingual administration, Subject 2, dog) was roughly 60 nM. It also gave an AUC(0-t) [3, 10] of 0.37 µM·h, an AUC(0-t) [3, 11] of 0.28 µM·h and an AUC [3, 10] of 0.38 µM·h. The AUC [3, 11] was 0.29 µM·h, the Cmax [3, 10] was 190 nM and the Cmax [3, 11] was 120 nM. The Tmax ([3]; po, Oral (gavage), Subject 1, dog, 13 mg (as base) Compound A hydroxybenzoate salt) was 0.75 h, the Tmax [3, 11] was 1 h and the half-life [3, 10] was 1.3 h. For the same molecule, the half-life [3, 11] was 1.3 h, the concentration at 5 min ([3]; po, 5 minutes after oral administration, Subject 1, dog) was roughly 2 nM and the concentration at 5 min ([3]; po, 5 minutes after oral administration, Subject 2, dog) was roughly 1.5 nM. The “Biopharmaceutical Classification System (BCS) class” value [4] was “Class I”, the solubility ([4]; highest dose strength is easily dissolved in 250 ml of aqueous media at all physiological pH values) was “very good solubility” and the “intestinal permeability: oral dose absorbed” value [5] was “more than 90%”. For the same molecule, the “ability to elicit nicotinic function in adrenal chromaffin tissue” value [6] was “lack of ability to elicit nicotinic function”, the “degree of exposure after oral administration” value [7] was “intersubject variability in the degree of exposure” and the “ability to elicit nicotinic function in cell preparations expressing muscle-type NNRs” value (muscle-type NNRs) was “lack of ability to elicit nicotinic function”.
